Tests used:
Type in all cases: in vivo
[1] = system: Eclipta alba; test: Greenhouse pot test, pre-emergence soil treatment, visual control effect 30 days after treatment, Gowing method
[2] = system: Bristlegrass; test: as above
Procedure: In the present application, indoor combined action of the compound of herbicide active component A and B on weeds was measured to determine the combined effect of the composition on weeds, wherein the structure of the active component A was as follows:
The weed cultivation method was as follows: quantitative weed seeds abutilon and bristlegrass were respectively sown in a paper cup filled with nutrient soil with a diameter of 7 cm, and then cultivated in the greenhouse after covering the soil, suppressing and watering. The post-emergence stem and leaf treatment was performed when the grass weeds grew to 5-7 leaf stage, broad-leaved weeds grew to 6-8 leaf stage; the pre-emergence soil treatment was performed the second day after sowing, and the early post-emergence treatment was performed after sowing and before emergence; the experiment was repeated 3 times. After the treatment and drug solution naturally dried, the weeds were placed in the greenhouse to be managed according to conventional methods. According to the suppression or death of the weeds, a visual control effect investigation was conducted 30 days after the treatment. The application adopted the Gowing method to evaluate the combined effect of the proposed composition.
(§1) X—Weed control effect when the amount of herbicide component A is P;
(§2) Y—Weed control effect when the amount of herbicide component B is Q;
(§3) E0—Theoretical control effect when the amount of herbicide component A is […];
(§4) E—The measured control effect after the herbicide component A and the herbicide component B are mixed according to the above ratio.
(§5) When E−E0>10%, it is synergism; when E−E0<−10%, it is antagonism; when E−E0 value is between ±10%, it is addition.

[3] = system: Abutilon; test: Example 12 indoor pot experiment, stem and leaf spray, visual control effect 30 days after treatment, Gowing method
Procedure: (§6) The combined effect of the composition on the weeds was clarified by the indoor pot experiment.
(§7) The weed cultivation and test material cultivation method was as follows: quantitative weed seeds abutilon and bristlegrass were respectively sown in a paper cup filled with nutrient soil with a diameter of 7 cm, and then cultivated in the greenhouse after covering the soil, suppressing and watering. The stem and leaf spray treatment was performed when the grass weeds grew to 5-7 leaf stage, and broad-leaved weeds grew to 6-8 leaf stage; the tests were repeated for 3 times. the treatment and drug solution naturally dried, the weeds were placed in the greenhouse to be managed according to conventional methods. According to the suppression or death of the weeds, a visual control effect investigation was conducted 30 days after the treatment.
(§8) The application adopted the Gowing method to evaluate the combined effect of the proposed composition.
as §1, §2, §3, §4, §5

[4] = system: Bristlegrass; test: as above
Procedure: as §6, §7, §8, §1, §2, §3, §4, §5

[5] = system: Horseweed herb (collected from Shenyang, Liaoning); test: Example 13 combined effect on weeds, Gowing method
Procedure: as §7, §8, §1, §2, §3, §4, §5
(§9) The test targets were horseweed herb collected from Shenyang, Liaoning and goosegrass collected from Zhengzhou, Henan.

[6] = system: goosegrass (collected from Zhengzhou, Henan); test: Example 13 combined effect on weeds, Gowing method
Procedure: as §7, §8, §1, §2, §3, §4, §5, §9

[7] = system: Abutilon; test: Example 15 indoor pot planting, death rate / herbicidal speed, weeds in 6-leaf stage
Procedure: (§10) The death rate of weeds after application of the herbicidal composition of the present application was measured and compared with the herbicidal rate when a single component was used. The test used the method of indoor pot planting. At the time of treatment, abutilon and barnyardgrass were in 6-leaf stage.

[8] = system: Echinochloacrusgalli; test: as above
Procedure: as §10

[9] = Example 12 Table 1, dose 37.5 ga.i./hm^2
[10] = Example 12 Table 1, dose 75 ga.i./hm^2
[11] = Example 12 Table 1, dose 150 ga.i./hm^2
[12] = Example 12 Table 1, dose 300 ga.i./hm^2
[13] = Example 13 Table 2, dose 37.5 ga.i./hm^2
[14] = Example 13 Table 2, dose 75 ga.i./hm^2
[15] = Example 13 Table 2, dose 150 ga.i./hm^2
[16] = Example 13 Table 2, dose 300 ga.i./hm^2
[17] = Table 11, 7 days after treatment, dose 50 ga.i./hm^2
[18] = Table 11, 7 days after treatment, dose 100 ga.i./hm^2
[19] = Table 11, 7 days after treatment, dose 200 ga.i./hm^2
[20] = Table 11, 7 days after treatment, dose 400 ga.i./hm^2
[21] = Table 11, 15 days after treatment, dose 50 ga.i./hm^2
[22] = Table 11, 15 days after treatment, dose 100 ga.i./hm^2
[23] = Table 11, 15 days after treatment, dose 200 ga.i./hm^2
[24] = Table 11, 15 days after treatment, dose 400 ga.i./hm^2
[25] = Table 11, 30 days after treatment, dose 50 ga.i./hm^2
[26] = Table 11, 30 days after treatment, dose 100 ga.i./hm^2
[27] = Table 11, 30 days after treatment, dose 200 ga.i./hm^2
[28] = Table 11, 30 days after treatment, dose 400 ga.i./hm^2

CCOCN(C(=O)CCl)c1c(C)cccc1CC [Acetochlor]
Measured value E ([1]; Table 3, dose 75 ga.i./hm^2): 10% | Measured value E ([1]; Table 3, dose 150 ga.i./hm^2): 35% | Measured value E ([2]; Table 3, dose 75 ga.i./hm^2): 50% | Measured value E ([2]; Table 3, dose 150 ga.i./hm^2): 75%

CCCCOCN(C(=O)CCl)c1c(CC)cccc1CC [Butachlor]
Measured value E ([1]; Table 3, dose 75 ga.i./hm^2): 15% | Measured value E ([1]; Table 3, dose 150 ga.i./hm^2): 25% | Measured value E ([2]; Table 3, dose 75 ga.i./hm^2): 45% | Measured value E ([2]; Table 3, dose 150 ga.i./hm^2): 60%

CC(C)N.O=C(O)CNCP(=O)(O)O [Glyphosate isopropylamine]
Measured value E [3, 9]: 10% | Measured value E [3, 10]: 20% | Measured value E [3, 11]: 50% | Measured value E [3, 12]: 65% | Measured value E [4, 9]: 0% | Measured value E [4, 10]: 15% | Measured value E [4, 11]: 30% | Measured value E [4, 12]: 45% | Measured value E [5, 13]: 25% | Measured value E [5, 14]: 35% | Measured value E [5, 15]: 65% | Measured value E [5, 16]: 70% | Measured value E [6, 13]: 5% | Measured value E [6, 14]: 25% | Measured value E [6, 15]: 50% | Measured value E [6, 16]: 65% | Control effect (visual observation %) [7, 17]: 5.8% | Control effect (visual observation %) [7, 18]: 16.2% | Control effect (visual observation %) [7, 19]: 24.6% | Control effect (visual observation %) [7, 20]: 43.5% | Control effect (visual observation %) [7, 21]: 9.0% | Control effect (visual observation %) [7, 22]: 26.2% | Control effect (visual observation %) [7, 23]: 38.3% | Control effect (visual observation %) [7, 24]: 38.0% | Control effect (visual observation %) [7, 25]: 6.8% | Control effect (visual observation %) [7, 26]: 20.0% | Control effect (visual observation %) [7, 27]: 62.6% | Control effect (visual observation %) [7, 28]: 79.9% | Control effect (visual observation %) [8, 17]: 4.1% | Control effect (visual observation %) [8, 18]: 36.9% | Control effect (visual observation %) [8, 19]: 62.2% | Control effect (visual observation %) [8, 20]: 66.7% | Control effect (visual observation %) [8, 21]: 34.3% | Control effect (visual observation %) [8, 22]: 48.7% | Control effect (visual observation %) [8, 23]: 63.9% | Control effect (visual observation %) [8, 24]: 64.5% | Control effect (visual observation %) [8, 25]: 29.6% | Control effect (visual observation %) [8, 26]: 68.5% | Control effect (visual observation %) [8, 27]: 100% | Control effect (visual observation %) [8, 28]: 99.0%

Reference: patent publication US20210112813A1, “HERBICIDAL COMPOSITION AND USE THEREOF” (NANTONG JIANGSHAN AGROCHEMICAL & CHEMICALS CO., LTD., priority 2019, published 2021)
